Reference: patent US20210236539A1, “METHOD OF PROPHYLAXIS OF ZIKA VIRUS INFECTION” (priority 2016, published 2021)

Columns and labels:
Dengue Type 2 virus = test: Activity against Dengue Type 2 virus (DSP0196); assay type: cell-based
Experimental: (§1) The activity of dendrimeric compounds against Dengue virus (D) and West Nile Fever virus (WNF) was tested.
b) The compound [BHAlys] [Lys]16 [CSNH-4-Ph(SO3Na)]32 (SPL compound 2792) was tested for activity against Dengue Type 2 virus (DSP0196). (the compound has a sulfonic acid- or sulfonate-containing moiety which is […]

West Nile Fever virus = test: Activity against West Nile Fever virus (DSP0114), 4 concentration assay; assay type: cell-based
Experimental: as §1
a) The compound [BHAlys][Lys]16[CONH-Ph-3,5-(SO3Na)2]32 (SPL compound 7674) was tested for activity against West Nile Fever virus (DSP0114) (the compound has a sulfonic acid- or sulfonate-containing moiety which is
A 4 concentration assay was used. The positive control was interferon-alpha.

Substance | activity against Dengue Type 2 virus (in words) (Dengue Type 2 virus) | EC50 NR (Dengue Type 2 virus; Dengue Type 2 virus, NR readout) | EC50 VIS (Dengue Type 2 virus; Dengue Type 2 virus, VIS readout) | activity against West Nile Fever virus (in words) (West Nile Fever virus) | EC50 NR (West Nile Fever virus; West Nile Fever virus, NR readout) | EC50 VIS (West Nile Fever virus; West Nile Fever virus, VIS readout)
[BHAlys] [Lys]16 [CSNH-4-Ph(SO3Na)]32 [SPL compound 2792] | not active | 50.3 µg/mL | > 100 µg/mL |  |  | 
[BHAlys][Lys]16[CONH-Ph-3,5-(SO3Na)2]32 [SPL compound 7674] |  |  |  | not active | 34 µg/mL | 22 µg/mL
